Reference: patent US20150174145A1, “Pharmaceutical compounds with the structure of ionic salts with antibiotic and anticancer action” (priority 2013, published 2015)

Experiments:
[1] = test system: S. epidermis; assay: Minimum inhibitory concentration, ampicillin sensitive strains; assay type: cell-based, Staphylococcus epidermidis; conditions: Staphylococcus epidermidis; S. epidermis, Gram-positive, ampicillin sensitive; read-out: Minimum inhibitory concentrations
Description: (§1) Each one of the 24 combinations of the ionic liquids were tested with following 9 bacteria: • Escherichia coli ATCC25922 • Staphylococcus aureus ATCC25923 • Klebsiella pneumonia • Staphylococcus epidermidis • Enterococcus fecalis • E. coli Tem CTXM9 • E. coli CTXM2 • E. coli AmpCMox2 • Saccharomyces cerevisiae PYCC 4072
(§2) These bacteria were tested in Vitek2 systems from bioMérieux. Bacteria were grown on Trypticase soy agar for 24 hours at 37° C. prior to each test. The bacteria assays were made in Tryptic Soy Broth.

[2] = test system: K. pneumonia; assay: Growing rates in presence and absence of compound; assay type: cell-based, Klebsiella pneumonia; conditions: conc. tested 0.5 mM
Description: as §2

[3] = test system: E. coli ATCC 25922; assay: Minimum inhibitory concentration, ampicillin sensitive strains; assay type: cell-based, Escherichia coli; conditions: Escherichia coli, ATCC25922; E. coli ATCC 25922, Gram-negative, ampicillin sensitive; read-out: Minimum inhibitory concentrations
Description: as §1, §2

[4] = test system: E. coli TEM CTX M9; assay: Minimum inhibitory concentration, ampicillin resistant strains; assay type: cell-based; conditions: Escherichia coli; E. coli TEM CTX M9, ampicillin resistant; read-out: Minimum inhibitory concentrations
Description: as §1, §2

[5] = test system: E. coli CTX M2; assay: as above; assay type: cell-based; conditions: Escherichia coli, CTXM2; E. coli CTX M2, ampicillin resistant; read-out: Minimum inhibitory concentrations
Description: as §1, §2

[6] = test system: E. fecalis; assay: Minimum inhibitory concentration, ampicillin sensitive strains; assay type: cell-based, Enterococcus fecalis; conditions: Enterococcus; E. fecalis, Gram-positive, ampicillin sensitive; read-out: Minimum inhibitory concentrations
Description: as §1, §2

[7] = test system: E. coli ATCC 25922; assay: Growing rates in presence and absence of compound; assay type: cell-based, Escherichia coli; conditions: E. coli ATCC 25922, conc. tested 0.5 mM
Description: as §2

[8] = test system: PC3 (prostate cancer cell line); assay: MTT cellular viability/proliferation, cancer cell lines; assay type: cell-based, human; conditions: Homo sapiens; PC3, MTT assay
Description: (§3) At about 70-80% confluence, cells were enzymatically detached with 0.05% trypsin and 0.5 mM EDTA and seeded at 10^4 cells cm^−2.
(§4) After an attachment period of 24 hours, the culture medium was renewed, and supplemented with different concentrations (0.005-500 mM) of the ampicillin derived ionic liquid. Cell cultures were maintained in a 5% CO2 humidified atmosphere at 37° C.
(§5) Cellular viability/proliferation was assessed by the MTT assay at days 1, 3 and 5 of the culture. This assay is based on the reduction of 3-(4,5-dimethylthiazol-2-yl)-2,5-diphenyltetrazolium bromide (MTT) to a purple formazan product by viable cells.
(§6) Shortly, cultured cells were incubated at 37° C. with 0.5 mg ml −1 of MTT for 4 hours. The culture medium was then removed; the stained product dissolved with dimethylsulfoxide, and absorbance determined at 550 nm in an ELISA plate rewader. Results were expressed as absorbance per cm2.
(§7) The values of the […] (IC50) and the median lethal dose (LD50) were obtained from nonlinear regression analysis of concentration effect curves using the GGraphPad Prism Software.
(§8) It is used to measure the efficacy of a compound in inhibiting any biochemical or biological function.

[9] = test system: MG63 (osteosarcoma cell line); assay: as above; assay type: cell-based, human; conditions: Homo sapiens, MG-63; MG63, MTT assay
Description: as §3, §4, §5, §6, §7, §8

[10] = test system: RKO (colon cancer cell line); assay: as above; assay type: cell-based, human; conditions: Homo sapiens, MTT assay
Description: as §3, §4, §5, §6, §7, §8

[11] = test system: HepG2 (hepatocellular liver carcinoma cell); assay: as above; assay type: cell-based, human; conditions: Homo sapiens; HepG2, MTT assay
Description: as §3, §4, §5, §6, §7, §8

[12] = test system: T47D (ductal breast epithelial tumour cell line); assay: cells; assay type: cell-based; conditions: Homo sapiens; T47D, MTT assay
Description: as §3, §4, §5, §6, §7, §8

[13] = test system: E. fecalis; assay: Growing rates in presence and absence of compound; assay type: cell-based, Enterococcus fecalis; conditions: conc. tested 0.005 mM
Description: as §2

[14] = test system: SF (skin fibroblasts); assay: MTT cellular viability/proliferation, primary human cells; assay type: cell-based; conditions: Homo sapiens, Skin fibroblast, MTT assay
Description: as §3, §4, §5, §6, §7, §8

[15] = test system: gingival fibroblasts (GF); assay: as above; assay type: cell-based; conditions: Homo sapiens, Fibroblast, MTT assay
Description: as §3, §4, §5, §6, §7, §8

[16] = test system: S. aureus ATCC 25923; assay: Growing rates in presence and absence of compound; assay type: cell-based, Staphylococcus aureus; conditions: S. aureus ATCC 25923, conc. tested 0.0005 mM
Description: as §2

[17] = test system: S. epidermis; assay: Growing rates in presence and absence of compound; assay type: cell-based, Staphylococcus epidermidis; conditions: conc. tested 0.005 mM
Description: as §2

[18] = test system: K. pneumoniae; assay: Minimum inhibitory concentration, ampicillin sensitive strains; assay type: cell-based, Klebsiella pneumonia; conditions: K. pneumoniae, Gram-negative, ampicillin sensitive
Description: as §1, §2

[19] = test system: E. coli AmpC MOX2; assay: Growing rates in presence and absence of compound; assay type: cell-based; conditions: E. coli AmpC Mox2, conc. tested 0.05 mM
Description: as §2

[20] = test system: E. coli TEM CTX M9; assay: Growing rates in presence and absence of compound; assay type: cell-based; conditions: E. coli TEM CTX M9, conc. tested 0.05 mM
Description: as §2

## CC1(C)S[C@@H]2[C@H](NC(=O)[C@H](N)c3ccccc3)C(=O)N2[C@H]1C(=O)O [[P6,6,6,14][Amp]]
[1]
  MIC: 50 µM
[2]
  Growing rate with compound: 0.00045 ± 0.00007 min⁻¹
[2]; with compound vs no compound
  Decreasing rate: 0.18
[3]
  MIC: 2500 µM
[4]
  MIC: 500 µM
[5]
  MIC: 500 µM
[6]
  MIC: 50 µM
[7]
  Growing rate with compound: 0.0007 ± 0.0001 min⁻¹
[7]; with compound vs no compound
  Decreasing rate: 0.035
[8]
  IC50: 0.354 µM
[9]
  IC50: 0.312 µM
[10]
  IC50: 0.18 µM
[11]
  IC50: 0.322 µM
[12]
  IC50: 0.264 µM
[13]
  Growing rate with compound: 0.0009 ± 0.0004 min⁻¹
[13]; with compound vs no compound
  Decreasing rate: 0.28
[14]
  IC50: 0.249 µM
[15]
  IC50: 0.173 µM
[16]
  Growing rate with compound: 0.0004 ± 0.0003 min⁻¹
[16]; with compound vs no compound
  Decreasing rate: 0.077
[17]
  Growing rate with compound: 0.0006 ± 0.0000 min⁻¹
[17]; with compound vs no compound
  Decreasing rate: 0.13
[18]
  Minimum inhibitory concentrations: 5000 µM
[18]; Klebsiella pneumoniae, read-out: Minimum inhibitory concentrations
  MIC: 5000 µM
[19]
  Growing rate with compound: 0.00077 ± 0.00006 min⁻¹
[19]; with compound vs no compound
  Decreasing rate: 0.24
[20]
  Growing rate with compound: 0.00067 ± 0.00006 min⁻¹
[20]; with compound vs no compound
  Decreasing rate: 0.20
